The text below walks through data of patent US9321728B2, “Beta-alanine derivatives, pharmaceutically acceptable salts thereof, and pharmaceutical composition comprising same as active ingredient” (KOREA RESEARCH INSTITUTE OF CHEMICAL TECHNOLOGY, priority 2012, dated 2016).

pIC50: −log10 of the molar value.

This assay concerns the target human DGAT1 (Homo sapiens (Human), UniProt O75907). Put plainly: Human DGAT1 enzyme inhibition test (phospholipid FlashPlate, [14C]decanoyl-CoA). The format is biochemical. Conditions: for pIC50: lysate of Hep3B cells over-expressing human DGAT1 (5 μg/well), didecanoyl glycerol and [14C]decanoyl-CoA substrates; for in vitro inhibition activity with respect to DGAT1: verbal summary of Table 1. How it is done:
The cells were treated with 200 μg/ml G-418(Sigma) once every three days for 4 weeks to over-express the human DGAT1, thereby obtaining a stabilized cell line. The over-expressed cells were put into a homogenization buffer [250 mM sucrose, 10 mM Tris-HCl (pH 7.4), 1 mM EDTA] and lysed by a homogenization apparatus. Then, centrifugation was performed with 600×g for 15 minutes to remove cell residue, and the obtained cells were used for an enzyme inhibition test. Human DGAT-1 and mouse DGAT activity was determined as follows: Assay buffer [20 mM HEPES (pH 7.4), 100 mM MgCl2, 0.04% BSA] containing 500 μM of enzyme substrate (didecanoyl glycerol) and 7.5 μM radiolabeled acyl-CoA substrate ([^14C]decanoyl-CoA) was added to each well of a phospholipid FlashPlate (PerkinElmer Life Sciences). A small aliquot of lysate (5 μg/well) or mouse liver microsome (0.1 mg/well) was added to start the reaction, which was allowed to proceed in a 20° C. bath for 1 hour. and maintained overnight at room temperature. Next day, measurement was performed by Wallac 1450 Microbeta Trilux Liquid Scintillation Counter and Luminometer (PerkinElmer Life Science). […] A calculation method of inhibition degree (%) is as follows.

Chain of human DGAT1 (O75907 whole entry): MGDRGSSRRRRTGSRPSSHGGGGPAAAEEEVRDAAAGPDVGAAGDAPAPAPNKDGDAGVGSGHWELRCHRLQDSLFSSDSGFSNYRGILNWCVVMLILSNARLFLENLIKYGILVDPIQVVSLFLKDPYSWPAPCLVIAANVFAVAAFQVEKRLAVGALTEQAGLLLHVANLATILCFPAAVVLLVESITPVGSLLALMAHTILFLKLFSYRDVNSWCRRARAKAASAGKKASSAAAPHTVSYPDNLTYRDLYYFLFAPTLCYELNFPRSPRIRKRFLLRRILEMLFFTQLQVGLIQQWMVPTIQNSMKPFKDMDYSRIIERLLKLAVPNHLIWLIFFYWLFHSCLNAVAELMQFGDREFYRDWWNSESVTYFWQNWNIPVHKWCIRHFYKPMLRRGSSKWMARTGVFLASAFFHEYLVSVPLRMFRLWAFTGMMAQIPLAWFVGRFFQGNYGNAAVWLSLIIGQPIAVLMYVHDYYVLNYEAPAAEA

Turning to `O=C(O)C[C@H]1CC[C@H](c2ccc(NC(=O)CCNC(=O)c3nc(-c4ccccc4C(F)(F)F)oc3C(F)(F)F)cc2)CC1` [Compound 66, trans-{4-[4-(3-{[5-trifluoromethyl-2-(2-trifluoromethylphenyl)oxazole-4-carbonyl]amino}propionylamino)phenyl]cyclohexyl}acetic acid], the pIC50 – broadly, −log10 of the IC50, conventionally taken in molar units – is above 7.30 and the “in vitro inhibition activity with respect to DGAT1” value (from here on “in vitro inhibition activity”) is listed as “good to excellent”.
As for `O=C(O)C[C@H]1CC[C@H](c2ccc(NC(=O)CCNC(=O)c3ccc(OCC4CC4)cc3)cc2)CC1` [Compound 58, trans-(4-{4-[3-(4-cyclopropylmethoxybenzoylamino)propionylamino]phenyl}cyclohexyl)acetic acid], the pIC50 was above 6.30.
Regarding `CCOc1ccc(C(=O)NCCC(=O)Nc2ccc([C@H]3CC[C@H](CC(=O)O)CC3)cc2)cc1` [Compound 4, trans-(4-{4-[3-(4-ethoxybenzoylamino)propionylamino]phenyl}cyclohexyl)acetic acid], the pIC50 is above 7.30 and the “in vitro inhibition activity” value is recorded as “good to excellent”.
Compound `Cc1ccc(-n2cc(C(=O)NCCC(=O)Nc3ccc([C@H]4CC[C@H](CC(=O)O)CC4)cc3)c(C(F)(F)F)n2)cc1` [Compound 47, trans-[4-(4-{3-[(1-p-tolyl-3-trifluoromethyl-1H-pyrazole-4-carbonyl)amino]propionylamino}phenyl)cyclohexyl]acetic acid] showed a pIC50 above 7.00.
In the case of `CCc1ccc(-c2ccc(C(=O)NCCC(=O)Nc3ccc([C@H]4CC[C@H](CC(=O)O)CC4)cc3)cc2)cc1` [Compound 93, trans-[4-(4-{3-[(4′-ethylbiphenyl-4-carbonyl)amino]propionylamino}phenyl)cyclohexyl]acetic acid], the pIC50 was above 7.30 and the “in vitro inhibition activity” value is recorded as “good to excellent”.
Consider `O=C(O)C[C@H]1CC[C@H](c2ccc(NC(=O)CCNC(=O)c3nc(-c4c(Cl)cccc4Cl)oc3C(F)(F)F)cc2)CC1` [Compound 69, sodium; trans-{4-[4-(3-{[2-(2,6-dichlorophenyl)-5-trifluoromethyloxazole-4-carbonyl]amino}propionylamino)phenyl]cyclohexyl}acetate], for which the negative logarithm of the IC50 (pIC50) was above 7.30.
On to `O=C(O)C[C@H]1CC[C@H](c2ccc(NC(=O)CCNC(=O)c3nc(-c4ccccc4Cl)oc3Cl)cc2)CC1` [Compound 95, trans-{4-[4-(3-{[5-chloro-2-(2-chlorophenyl)oxazole-4-carbonyl]amino}propionylamino)phenyl]cyclohexyl}acetic acid], for which the pIC50 was above 7.30 and the “in vitro inhibition activity” value is given as “good to excellent”.
Compound `O=C(O)C[C@H]1CC[C@H](c2ccc(NC(=O)CCNC(=O)c3nc(-c4ccccc4)oc3C(F)(F)F)cc2)CC1` [Compound 22, sodium; trans-[4-(4-{3-[(2-phenyl-5-trifluoromethyloxazole-4-carbonyl)amino]propionylamino}phenyl)cyclohexyl]acetate] showed a pIC50 above 6.30.
On the same count and under the same terms, in the case of `O=C(O)C[C@H]1CC[C@H](c2ccc(NC(=O)CCNC(=O)c3sc(-c4ccccc4)nc3C(F)(F)F)cc2)CC1` [Compound 37, trans-[4-(4-{3-[(2-phenyl-4-trifluoromethylthiazole-5-carbonyl)amino]propionylamino}phenyl)cyclohexyl]acetic acid] it was above 7.00.
Consider `NC(=O)C[C@H]1CC[C@H](c2ccc(NC(=O)CCNC(=O)c3nc(-c4ccccc4)oc3C(F)(F)F)cc2)CC1` [Compound 41, trans-2-phenyl-5-trifluoromethyloxazole-4-carboxylic acid{2-[4-(4-carbamoylmethylcyclohexyl)phenylcarbamoyl]ethyl}amide], for which the pIC50 is above 7.30 and the “in vitro inhibition activity” value was “good to excellent”.
The compound `O=C(O)C[C@H]1CC[C@H](c2ccc(NC(=O)CCNC(=O)c3nc(-c4ccc(Br)cc4)oc3C(F)(F)F)cc2)CC1` [Compound 27, trans-{4-[4-(3-{[2-(4-bromophenyl)-5-trifluoromethyloxazole-4-carbonyl]amino}propionylamino)phenyl]cyclohexyl}acetic acid] showed a pIC50 above 7.00.
Turning to `Cc1nc(-c2ccccc2)sc1C(=O)NCCC(=O)Nc1ccc([C@H]2CC[C@H](CC(=O)O)CC2)cc1` [Compound 33, trans-[4-(4-{3-[(4-methyl-2-phenylthiazole-5-carbonyl)amino]propionylamino}phenyl)cyclohexyl]acetic acid], the pIC50 was above 6.30.
Regarding `O=C(O)C[C@H]1CC[C@H](c2ccc(NC(=O)CCNC(=O)c3nc(-c4ccc(Cl)cc4Cl)oc3C(F)(F)F)cc2)CC1` [Compound 64, trans-{4-[4-(3-{[2-(2,4-dichlorophenyl)-5-trifluoromethyloxazole-4-carbonyl]amino}propionylamino)phenyl]cyclohexyl}acetic acid], the pIC50 is above 7.30 and the “in vitro inhibition activity” value is recorded as “good to excellent”.
On to `O=C(O)C[C@H]1CC[C@H](c2ccc(NC(=O)CCNC(=O)c3nc(-c4ccccc4)oc3C(F)(F)F)cc2)CC1` [Compound 6, trans-[4-(4-{3-[(2-Phenyl-5-trifluoromethyloxazole-4-carbonyl)amino]propionylamino}phenyl)cyclohexyl]acetic acid], for which the pIC50 is above 7.30 and the “in vitro inhibition activity” value is listed as “good to excellent”.
Take `Cc1ccc(-c2nc(C(=O)NCCC(=O)Nc3ccc([C@H]4CC[C@H](CC(=O)O)CC4)cc3)c(C(F)(F)F)o2)cc1` [Compound 19, trans-[4-(4-{3-[(2-p-tolyl-5-trifluoromethyloxazole-4-carbonyl)amino]propionylamino}phenyl)cyclohexyl]acetic acid]: the pIC50 was above 7.00.
Take `O=C(O)C[C@H]1CC[C@H](c2ccc(NC(=O)CCNC(=O)c3oc(-c4ccccc4)nc3C(F)(F)F)cc2)CC1` [Compound 15, trans-[4-(4-{3-[(2-phenyl-4-trifluoromethyloxazole-5-carbonyl)amino]propionylamino}phenyl)cyclohexyl]acetic acid]: the pIC50 is above 7.00.
Consider `O=C(O)C[C@H]1CC[C@H](c2ccc(NC(=O)CCNC(=O)c3cn(-c4ccccc4)nc3C(F)(F)F)cc2)CC1` [Compound 7, trans-[4-(4-{3-[(1-phenyl-3-trifluoromethyl-1H-pyrazole-4-carbonyl)amino]propionylamino}phenyl)cyclohexyl]acetic acid], for which the pIC50 is above 7.00.
Same read-out and setting: in the case of `O=C(O)C[C@H]1CC[C@H](c2ccc(NC(=O)CCNC(=O)c3nc(-c4c(F)cccc4Cl)oc3C(F)(F)F)cc2)CC1` [Compound 73, trans-{4-[4-(3-{[2-(2-chloro-6-fluorophenyl)-5-trifluoromethyloxazole-4-carbonyl]amino}propionylamino)phenyl]cyclohexyl}acetic acid] it was above 7.00; in that of `Cc1ccccc1-c1nc(C(=O)NCCC(=O)Nc2ccc([C@H]3CC[C@H](CC(=O)O)CC3)cc2)c(C(F)(F)F)o1` [Compound 21, trans-[4-(4-{3-[(2-o-tolyl-5-trifluoromethyloxazole-4-carbonyl)amino]propionylamino}phenyl)cyclohexyl]acetic acid], above 7.00; in that of `O=C(O)C[C@H]1CC[C@H](c2ccc(NC(=O)CCNC(=O)c3cn(-c4ccc(Cl)cc4)nc3C(F)(F)F)cc2)CC1` [Compound 49, trans-{4-[4-(3-{[1-(4-chlorophenyl)-3-trifluoromethyl-1H-pyrazole-4-carbonyl]amino}propionylamino)phenyl]cyclohexyl}acetic acid], above 7.00.
As to `O=C(O)C[C@H]1CC[C@H](c2ccc(NC(=O)CCNC(=O)c3ccc(-c4ccccc4)c(Cl)c3)cc2)CC1` [Compound 94, trans-[4-(4-{3-[(2-chlorobiphenyl-4-carbonyl)amino]propionylamino}phenyl)cyclohexyl]acetic acid], the pIC50 was above 7.30 and the “in vitro inhibition activity” value is given as “good to excellent”.
With `O=C(O)C[C@H]1CC[C@H](c2ccc(NC(=O)CCNC(=O)c3nc(-c4ccccc4)oc3Cl)cc2)CC1` [Compound 87, trans-[4-(4-{3-[(5-chloro-2-phenyloxazole-4-carbonyl)amino]propionylamino}phenyl)cyclohexyl]acetic acid], the pIC50 is above 7.00.
The same measure, in the same setting: for `O=C(O)C[C@H]1CC[C@H](c2ccc(NC(=O)CCNC(=O)c3nc(-c4ccc(F)cc4)oc3C(F)(F)F)cc2)CC1` [Compound 56, trans-{4-[4-(3-{[2-(4-fluorophenyl)-5-trifluoromethyloxazole-4-carbonyl]amino}propionylamino)phenyl]cyclohexyl}acetic acid] the value was above 6.30; for `Cc1oc(-c2ccccc2)nc1C(=O)NCCC(=O)Nc1ccc([C@H]2CC[C@H](CC(=O)O)CC2)cc1` [Compound 31, trans-[4-(4-{3-[(5-methyl-2-phenyloxazole-4-carbonyl)amino]propionylamino}phenyl)cyclohexyl]acetic acid], above 7.00.
The compound `O=C(O)C[C@H]1CC[C@H](c2ccc(NC(=O)CCNC(=O)c3ccc(-c4ccccc4Cl)cc3)cc2)CC1` [Compound 86, trans-[4-(4-{3-[(2′-chlorobiphenyl-4-carbonyl)amino]propionylamino}phenyl)cyclohexyl]acetic acid] had a pIC50 above 7.00.
